The structures appear in SMILES notation.

T1 sequence (Q7Z1V1 15-481, looked up, natural form): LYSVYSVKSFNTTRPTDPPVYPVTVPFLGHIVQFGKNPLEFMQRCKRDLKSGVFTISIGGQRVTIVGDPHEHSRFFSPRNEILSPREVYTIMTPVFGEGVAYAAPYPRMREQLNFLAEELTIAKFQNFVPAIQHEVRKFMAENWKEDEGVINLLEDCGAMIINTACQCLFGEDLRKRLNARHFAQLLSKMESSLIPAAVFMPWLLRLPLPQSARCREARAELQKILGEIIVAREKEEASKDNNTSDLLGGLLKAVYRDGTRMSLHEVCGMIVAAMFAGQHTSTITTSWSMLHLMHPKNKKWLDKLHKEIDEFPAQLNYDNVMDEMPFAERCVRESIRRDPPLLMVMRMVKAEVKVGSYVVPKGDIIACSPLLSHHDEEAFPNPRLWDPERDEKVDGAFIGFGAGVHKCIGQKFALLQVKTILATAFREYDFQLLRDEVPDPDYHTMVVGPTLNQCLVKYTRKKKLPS

The experiment concerns the target T1, T. cruzi CYP51 (Trypanosoma cruzi, UniProt Q7Z1V1).
T1 construct: had the first 21 residues upstream of K22 replaced with the fragment MAKKKKK; His6 (C); made in house
Briefly: HTS spectral-mode binding screen, type II difference spectra scored 0-5. As to conditions: spectral mode, four serial dilutions 2 µM to 12.5 µM, 2 µM CYP51.
Compound `CCC(C)(C)c1ccc(OCC(=O)Nc2ccncc2)cc1` [Compound 58] registered an HTS binding score of 4.
With `CCN(Cc1ccncc1)/C(S)=N/CCc1ccccc1` [Compound 59] the figure was 5; with `N=C(NOC(=O)/C=C/c1ccccc1Cl)c1ccncc1` [Compound 60], 4; with `O=C(c1ccncc1)N(Cc1ccccc1)Cc1ccccc1` [Compound 61], 4.
`Cc1cc(Cl)ccc1OCCCC(=O)Nc1cccnc1` [Compound 62] yielded an HTS binding score of 4.
Next, `CCCCNC(=O)c1cc(-c2ccncc2)nc2ccccc12` [Compound 63]: 5; `CC(C)N(CCc1ccncc1)/C(S)=N/C1CCCCC1` [Compound 64]: 5.
Next, `COc1ccc(-c2[nH]nc3c2C(c2cccnc2)NC3=O)cc1` (stereo not shown) [Compound 65]: 4; `O=C(NCCCn1ccnc1)c1ccccc1Br` [Compound 66]: 4.
In turn, `CN1C(=O)c2[nH]nc(-c3ccc(F)cc3)c2C1c1cccnc1` (stereo not shown) [Compound 67] displayed an HTS binding score of 5.
Next, `COc1ccc(-c2cc(C(=O)NCc3cccnc3)[nH]n2)cc1` [Compound 68]: 4; `N=C(NOC(=O)c1ccc(Br)o1)c1ccncc1` [Compound 69]: 4.
With `O=C(NCCc1ccncc1)Nc1ccc(Cl)c(Cl)c1` [Compound 70] the figure was 4; with `N=C(NOS(=O)(=O)c1ccc(Cl)cc1)c1ccncc1` [Compound 71], 5.
Compound `CCOc1cc(S(=O)(=O)Nc2cccnc2)ccc1Cl` [Compound 72] returned an HTS binding score of 4.
In turn, `COC(=O)C1=C(N)Oc2cc(C)oc(=O)c2C1c1cccnc1` (stereo not shown) [Compound 73] came in with an HTS binding score of 4.
The compound `CCCC/N=C(\S)N1CCn2cccc2C1c1cccnc1` (stereo not shown) [Compound 74] displayed an HTS binding score of 4.
For `O=C(c1cc(-c2ccncc2)nc2ccccc12)N1CCCCC1` [Compound 76], the HTS binding score turned out to be 5.
With `Cc1cc(Cl)ccc1OCCCC(=O)NCc1cccnc1` [Compound 77] the figure was 4.
Next, `Cc1cc(Cl)ccc1OCCCC(=O)NCc1ccncc1` [Compound 78]: 4.
`CCn1c(C(=O)NCc2cccnc2)cc2oc3ccccc3c21` [Compound 79] had an HTS binding score of 4.
The compound `O=C(Cc1cccc(O)c1)Nc1cc(-c2ccncc2)cnc1O` [Compound 80] displayed an HTS binding score of 4.
With `N#Cc1nc(COc2ccccc2)oc1NCCCn1ccnc1` [Compound 81] the figure was 4.
The compound `O=C(CNCc1cccnc1)Nc1ccc(OC(F)(F)F)cc1` [Compound 82] registered an HTS binding score of 4.
For the compound `CC1=NN(C(=O)COc2ccccc2C)C(O)(c2cccnc2)C1` (stereo not shown) [Compound 83], the HTS binding score was determined as 4.
With `COc1cccc(-c2noc(C(=O)NCCCn3ccnc3)n2)c1` [Compound 84] the figure was 4; with `Cc1cc(C=C2C(=O)c3ccccc3C2=O)c(C)n1-c1ccncc1` [Compound 85], 4; with `O=C(CCc1nc(-c2ccc(Cl)cc2)no1)Nc1cccnc1` [Compound 86], 4.
With `Cc1[nH]c2ccccc2c1C(Nc1ccc(F)cc1)c1ccncc1` (stereo not shown) [Compound 87] the figure was 4; with `Cc1[nH]c2ccccc2c1C(Nc1cccc(F)c1)c1cccnc1` (stereo not shown) [Compound 88], 4; with `COc1ccccc1C(=O)O/N=C(\c1ccccc1)c1ccncc1` [Compound 89], 4.
Next, `COc1ccc2nc3oc(C(=O)NCc4cccnc4)cc3cc2c1` [Compound 90]: 5; `COc1ccc(NC(=O)Nc2ccc(Cc3ccncc3)cc2)cc1` [Compound 91]: 5.
Turning to `Cc1c(C(=O)Nc2ccncc2)sc2nc(-c3ccccc3)cn12` [Compound 92], the HTS binding score is listed as 4.

Source of the values: PMC3409115, “Diverse Inhibitor Chemotypes Targeting Trypanosoma cruzi CYP51” (PLoS Neglected Tropical Diseases, 2012).
